Data on five molecules can be found in patent publication US7241770B2 (priority 2003, dated 2007).

Assay [1] relates to castor oil induced diarrhoea. On the set-up: species or system male NMRI mice. As to conditions: mouse, sc.
Another assay deals with normal colon transit. Further details: species or system male Sprague Dawley rats. The note with it: rat.
In assay [2] the test system is visceral hypersensitivity. Further details: species or system adult female Sprague Dawley rats. The note with it: rat.

Where two headings read alike, the source gives them in different places.

Take `CNCCCN1CN(c2ccccc2)C2(CCN(CCC3CCC4CC3C4(C)C)CC2)C1=O` (stereo not shown) [Example 13, 8-[2-(6,6-Dimethyl-bicyclo[3.1.1]hept-2-yl)-ethyl]-3-(3-methylamino-propyl)-1-phenyl-1,3,8-triaza-spiro[4.5]decan-4-one]: the “In vivo agonism diarrhoea mean score % control” value in assay [1] is 59 (s.c.) % control. Moreover, the “In vivo agonism transit Mean retention time % control” value with normal colon transit (sc) is on record as 105 (s.c.) % control.
Take `CN(CCN1CN(c2ccccc2)C2(CCN(CCC3CCC4CC3C4(C)C)CC2)C1=O)C(c1ccco1)C(O)CO` (stereo not shown) [Example 51]: the “In vivo agonism transit Mean retention time % control” value is recorded as 105 (p.o.) % control with normal colon transit (po) and 102 (s.c.) % control in the assay on normal colon transit (sc). The entries for the “In vivo agonism hypersensitivity max inhibition % of control” value in assay [2] (po) and in assay [2] (sc) were 44 (p.o.) % of control and 45 (s.c.) % of control, respectively.
On to `CN(CCCN1CN(c2ccccc2)C2(CCN(CCC3CCC4CC3C4(C)C)CC2)C1=O)CC1(O)CCNCC1` (stereo not shown) [Example 37, 8-[2-(6,6-Dimethyl-bicyclo[3.1.1]hept-2-yl)-ethyl]-3-{3-[(4-hydroxy-piperidin-4-ylmethyl)-methyl-amino]-propyl}-1-phenyl-1,3,8-triaza-spiro[4.5]decan-4-one], for which the “In vivo agonism hypersensitivity max inhibition % of control” value in assay [2] (sc) is listed as 34 (s.c.) % of control.
Same read-out and setting: as for `CC1(C)C2CCC(CCN3CCC4(CC3)C(=O)NCN4c3ccccc3)C1C2` (stereo not shown) [Example 1, 8-[2-(6,6-Dimethyl-bicyclo[3.1.1]hept-2-yl)-ethyl]-1-phenyl-1,3,8-triaza-spiro[4.5]decan-4-one], the figure is 49 (s.c.) % of control.
On to `CNCCCCN1CN(c2ccccc2)C2(CCN(CCC3CCC4CC3C4(C)C)CC2)C1=O` (stereo not shown) [Example 14], for which the “In vivo agonism diarrhoea mean score % control” value in assay [1] is reported as 64 (s.c.) % control. For the same molecule, the “In vivo agonism transit Mean retention time % control” value with normal colon transit (sc) is recorded as 111 (s.c.) % control.
